Source: paper PMC6331797, “Escherichia coli ASKA Clone Library Harboring tRNA-Specific Adenosine Deaminase (tadA) Reveals Resistance towards Xanthorrhizol” (Molecules, 2015)

Key:
Experiment in all cases: tryptophan fluorescence quenching titration with purified protein
Assay type in all cases: binding
[1] = molecular target: T1, tadA (tRNA-specific adenosine deaminase) (Escherichia coli, UniProt P68398, F149G)
T1 construct: his-tagged tadA

[2] = molecular target: T2, tadA (tRNA-specific adenosine deaminase) (Escherichia coli, UniProt P68398, A143V)
T2 construct: his-tagged tadA
T2 sequence (P68398 whole entry A143V): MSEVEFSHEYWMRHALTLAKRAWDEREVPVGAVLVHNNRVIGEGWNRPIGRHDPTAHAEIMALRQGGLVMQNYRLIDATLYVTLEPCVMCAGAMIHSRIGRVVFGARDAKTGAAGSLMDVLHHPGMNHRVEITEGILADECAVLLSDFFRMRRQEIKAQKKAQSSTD

[3] = molecular target: T3, tadA (tRNA-specific adenosine deaminase) (Escherichia coli, UniProt P68398)
T3 construct: his-tagged tadA
T3 sequence (P68398 whole entry): as the sequence (P68398 whole entry A143V) above, with V143A counted along it

T1 sequence (P68398 whole entry F149G): as the sequence (P68398 whole entry A143V) above, with V143A, F149G counted along it

`CC(C)=CCC[C@@H](C)c1ccc(C)c(O)c1` [xanthorrhizol] was tested, and the Kd [1] was 32.8 µM, the Kd [2] was 110 µM and the Kd [3] was 19 µM.
